From ChEMBL document CHEMBL3124770, “Rugulactone derivatives act as inhibitors of NF-κB activation and modulates the transcription of NF-κB dependent genes in MDA-MB-231cells” (Bioorg Med Chem Lett, 2014)
Activity calls are given as the source filed them. The calls are words filed in the database; no cut-off is given here.

Experiments:
MDA-MB-231 [1] = test: Inhibition of NFkappaB activity in estrogen receptor-negative human MDA-MB-231 cells at 2 uM after 24 hrs by SEAP reporter assay; format: cell-based
MCF7 [2] = test: Cytotoxicity against estrogen receptor-positive human MCF7 cells assessed as cell viability after 72 hrs by MTT assay; format: functional, cell-based; conditions: MCF7, 72 h
MCF7 [3] = test: Inhibition of NFkappaB activity in estrogen receptor-positive human MCF7 cells at 2 uM after 24 hrs by SEAP reporter assay; format: cell-based
MDA-MB-231 [4] = test: Cytotoxicity against estrogen receptor-negative human MDA-MB-231 cells assessed as cell viability after 72 hrs by MTT assay; format: functional, cell-based; conditions: MDA-MB-231, 72 h
MDA-MB-231 [5] = test: Reduction in HDAC-3 nuclear expression in estrogen receptor-negative human MDA-MB-231 cells at 2 uM after 24 hrs by Western blotting analysis; format: functional, cell-based
MDA-MB-231 [6] = test: Cell cycle arrest in estrogen receptor-negative human MDA-MB-231 cells assessed as decrease in CDK2 expression at 2 uM after 24 hrs by Western blotting analysis; format: functional, cell-based
MDA-MB-231 [7] = test: Induction of apoptosis in estrogen receptor-negative human MDA-MB-231 cells assessed as increase in PARP cleavage at 2 uM after 24 hrs by Western blotting analysis; format: functional, cell-based
MDA-MB-231 [8] = test: Induction of apoptosis in estrogen receptor-negative human MDA-MB-231 cells assessed as reduced procaspase-3 level at 2 uM after 24 hrs by Western blotting analysis; format: functional, cell-based
MDA-MB-231 [9] = test: Induction of apoptosis in estrogen receptor-negative human MDA-MB-231 cells assessed as increase in Rb cleavage at 2 uM after 24 hrs by Western blotting analysis; format: functional, cell-based
MDA-MB-231 [10] = test: Cell cycle arrest in estrogen receptor-negative human MDA-MB-231 cells assessed as decrease in Cyclin E expression at 2 uM after 24 hrs by Western blotting analysis; format: functional, cell-based
MDA-MB-231 [11] = test: Cell cycle arrest in estrogen receptor-negative human MDA-MB-231 cells assessed as accumulation at S phase at 2 uM after 24 hrs by Propidium iodide staining-based flow cytometric analysis (reference value: 19 +/- 1%); format: functional
MDA-MB-231 [12] = test: Reduction in HDAC-8 nuclear expression in estrogen receptor-negative human MDA-MB-231 cells at 2 uM after 24 hrs by Western blotting analysis; format: functional, cell-based
MDA-MB-231 [13] = test: Cell cycle arrest in estrogen receptor-negative human MDA-MB-231 cells assessed as accumulation at G1 phase at 2 uM after 24 hrs by Propidium iodide staining-based flow cytometric analysis (reference value: 54.66 +/- 2.51%); format: functional
MDA-MB-231 [14] = test: Inhibition of NFkappaB activity in estrogen receptor-negative human MDA-MB-231 cells assessed as retention of NFKappaB/Rel A in cytoplasm at 2 uM after 24 hrs by DAPI/PI staining-based confocal microscopy; format: cell-based
MDA-MB-231 [15] = test: Effect on p21 gene expression in estrogen receptor-negative human MDA-MB-231 cells at 2 uM after 24 hrs by luciferase reporter gene assay; format: functional, cell-based
MDA-MB-231 [16] = test: Cell cycle arrest in estrogen receptor-negative human MDA-MB-231 cells assessed as accumulation at G2/M phase at 2 uM after 24 hrs by Propidium iodide staining-based flow cytometric analysis (reference value: 26.33 +/- 3.05%); format: functional
MDA-MB-231 [17] = test: Inhibition of NFkappaB activity in estrogen receptor-negative human MDA-MB-231 cells assessed as reduction of Bcl-xL expression at 2 uM after 24 hrs by Western blotting analysis; format: cell-based
MDA-MB-231 [18] = test: Inhibition of NFkappaB activity in estrogen receptor-negative human MDA-MB-231 cells assessed as reduction of p65 expression at 2 uM after 24 hrs by Western blotting analysis; format: cell-based
MDA-MB-231 [19] = test: Inhibition of NFkappaB activity in estrogen receptor-negative human MDA-MB-231 cells assessed as reduction of cyclin D1 expression at 2 uM after 24 hrs by Western blotting analysis; format: cell-based

Row | Structure (SMILES) | inhibition (MDA-MB-231 [1]) | IC50 (MCF7 [2]) [µM] | inhibition (MCF7 [3]) | IC50 (MDA-MB-231 [4]) [µM] | other results
1 | O=C(/C=C/C[C@H]1CC=CC(=O)O1)CCc1cccc(Oc2ccccc2)c1 | Active | 3.36 | Active | 3.2 | 
2 | O=C(/C=C/C[C@H]1CC=CC(=O)O1)CCc1ccc2c(c1)OCO2 | Active | 3.31 | Active | 3.09 | 
3 | CCCCCCCCCCCCCCCCCCCC(=O)/C=C/C[C@H]1CC=CC(=O)O1 | Active | 3.12 | Active | 3.58 | 
4 | O=C(/C=C/C[C@@H]1CC=CC(=O)O1)CCc1cccc(O)c1 | Active | 5.12 | Active | 6.18 | 
5 | CC(=O)/C=C/C[C@@H]1CC=CC(=O)O1 | Active | 3.36 | Active | 3.07 | Activity (MDA-MB-231 [5]): Active; Activity (MDA-MB-231 [6]): Active; Activity (MDA-MB-231 [7]): Active; Activity (MDA-MB-231 [8]): Active; Activity (MDA-MB-231 [9]): Active; Activity (MDA-MB-231 [10]): Active; Activity (MDA-MB-231 [11]): 6%; Activity (MDA-MB-231 [12]): Active; Activity (MDA-MB-231 [13]): 68%; NF-kappaB activity inhibition (MDA-MB-231 [14]): Active; Activity (MDA-MB-231 [15]): inactive; Activity (MDA-MB-231 [16]): 26%
6 | CCCCCCCCCCCCCCCCCC(=O)/C=C/C[C@H]1CC=CC(=O)O1 | Active | 4.32 | Active | 3.93 | 
7 | CCCCCCCCCCCC(=O)/C=C/C[C@@H]1CC=CC(=O)O1 | Active | 4.56 | Active | 5.42 | 
8 | CCCCCCCCCCCCCCCC(=O)/C=C/C[C@@H]1CC=CC(=O)O1 | Active | 3.96 | Active | 4.11 | 
9 | CCCCCCCC/C=C\CCCCCCCC(=O)/C=C/C[C@H]1CC=CC(=O)O1 | Active | 2.7 | Active | 2.96 | Activity (MDA-MB-231 [5]): Active; Activity (MDA-MB-231 [11]): 8%; inhibition (MDA-MB-231 [17]): Active; Activity (MDA-MB-231 [12]): Active; inhibition (MDA-MB-231 [18]): Active; Activity (MDA-MB-231 [13]): 70.6%; NF-kappaB activity inhibition (MDA-MB-231 [14]): Active; inhibition (MDA-MB-231 [19]): Active; Activity (MDA-MB-231 [15]): inactive; Activity (MDA-MB-231 [16]): 21.3%
10 | O=C(/C=C/C[C@H]1CC=CC(=O)O1)CCc1ccc2ccccc2c1 | Active | 4.48 | Active | 3.64 | 
11 | O=C(/C=C/C[C@H]1CC=CC(=O)O1)CCc1c[nH]c2ccccc12 | Active | 3.91 | Active | 3.98 | 
12 | CCCCCCCCCCCCCCCCC/C=C/C(=O)/C=C/C[C@@H]1CC=CC(=O)O1 | Active | 3.76 | Active | 4.49 | 
13 | CCCCCCCCCCCCCCCCCCCC(=O)/C=C/C[C@@H]1CC=CC(=O)O1 | Active | 5.57 | Active | 6.22 | 
